{"source": "ChEMBL document CHEMBL4270580", "about": "“Syntheses of C-ring modified dehydroabietylamides and their cytotoxic activity” (Eur J Med Chem, 2018)"}
{"test_system": "FaDu", "test": "Cytotoxicity against human FADU cells after 96 hrs by sulforhodamine-B assay", "assay_type": "functional, cell-based", "settings": "Homo sapiens, FaDu, 96 h; read-out: EC50", "units": {"EC50": "µM"}}
{"smiles": "CC(C)c1cc2c(cc1O)[C@@]1(C)CCC[C@@](C)(CNC(=O)c3ccncc3)[C@@H]1CC2", "EC50": 18.8}
{"smiles": "CC(C)c1cc2c(cc1O)[C@@]1(C)CCC[C@@](C)(CNC(=O)c3ccccc3)[C@@H]1CC2", "EC50": 14.8}
{"smiles": "CC(C)c1ccc2c(c1)CC[C@H]1[C@](C)(CNC(=O)c3ccncc3)CCC[C@]21C", "EC50": 14.4}
{"smiles": "CC(=O)Oc1cc2c(cc1C(C)C)CC[C@H]1[C@](C)(CNC(=O)CCCC[C@H]3SCC4NC(=O)NC43)CCC[C@]21C", "note": "(some centres not stated)", "EC50": "> 30"}
{"smiles": "Cc1ccc(C(=O)NC[C@]2(C)CCC[C@]3(C)c4cc(O)c(C(C)C)cc4CC[C@@H]23)cc1", "EC50": 12.2}
{"smiles": "CC(C)c1cc2c(cc1OC(=O)c1ccccc1)[C@@]1(C)CCC[C@@](C)(CNC(=O)c3ccccc3)[C@@H]1CC2", "EC50": "> 30"}
{"test_system": "A2780", "test": "Cytotoxicity against human A2780 cells after 96 hrs by sulforhodamine-B assay", "assay_type": "functional, cell-based", "settings": "Homo sapiens, A2780, 96 h; read-out: EC50", "units": {"EC50": "µM"}}
{"smiles": "CC(C)c1cc2c(cc1O)[C@@]1(C)CCC[C@@](C)(CNC(=O)c3ccncc3)[C@@H]1CC2", "EC50": 12.9}
{"smiles": "CC(C)c1cc2c(cc1O)[C@@]1(C)CCC[C@@](C)(CNC(=O)c3ccccc3)[C@@H]1CC2", "EC50": 12.5}
{"smiles": "CC(C)c1ccc2c(c1)CC[C@H]1[C@](C)(CNC(=O)c3ccncc3)CCC[C@]21C", "EC50": 9.8}
{"smiles": "CC(=O)Oc1cc2c(cc1C(C)C)CC[C@H]1[C@](C)(CNC(=O)CCCC[C@H]3SCC4NC(=O)NC43)CCC[C@]21C", "note": "(some centres not stated)", "EC50": "> 30"}
{"smiles": "Cc1ccc(C(=O)NC[C@]2(C)CCC[C@]3(C)c4cc(O)c(C(C)C)cc4CC[C@@H]23)cc1", "EC50": 10}
{"smiles": "CC(C)c1cc2c(cc1OC(=O)c1ccccc1)[C@@]1(C)CCC[C@@](C)(CNC(=O)c3ccccc3)[C@@H]1CC2", "EC50": "> 30"}
{"test_system": "HT-29", "test": "Cytotoxicity against human HT-29 cells after 96 hrs by sulforhodamine-B assay", "assay_type": "functional, cell-based", "settings": "Homo sapiens, HT-29, 96 h; read-out: EC50", "units": {"EC50": "µM"}}
{"smiles": "CC(C)c1cc2c(cc1O)[C@@]1(C)CCC[C@@](C)(CNC(=O)c3ccncc3)[C@@H]1CC2", "EC50": 19}
{"smiles": "CC(C)c1cc2c(cc1O)[C@@]1(C)CCC[C@@](C)(CNC(=O)c3ccccc3)[C@@H]1CC2", "EC50": 16.2}
{"smiles": "CC(C)c1ccc2c(c1)CC[C@H]1[C@](C)(CNC(=O)c3ccncc3)CCC[C@]21C", "EC50": 10.7}
{"smiles": "CC(=O)Oc1cc2c(cc1C(C)C)CC[C@H]1[C@](C)(CNC(=O)CCCC[C@H]3SCC4NC(=O)NC43)CCC[C@]21C", "note": "(some centres not stated)", "EC50": "> 30"}
{"smiles": "Cc1ccc(C(=O)NC[C@]2(C)CCC[C@]3(C)c4cc(O)c(C(C)C)cc4CC[C@@H]23)cc1", "EC50": 17.2}
{"smiles": "CC(C)c1cc2c(cc1OC(=O)c1ccccc1)[C@@]1(C)CCC[C@@](C)(CNC(=O)c3ccccc3)[C@@H]1CC2", "EC50": "> 30"}
{"test_system": "MCF7", "test": "Cytotoxicity against human MCF7 cells after 96 hrs by sulforhodamine-B assay", "assay_type": "functional, cell-based", "settings": "Homo sapiens, MCF7, 96 h; read-out: EC50", "units": {"EC50": "µM"}}
{"smiles": "CC(C)c1cc2c(cc1O)[C@@]1(C)CCC[C@@](C)(CNC(=O)c3ccncc3)[C@@H]1CC2", "EC50": 4.3}
{"smiles": "CC(C)c1cc2c(cc1O)[C@@]1(C)CCC[C@@](C)(CNC(=O)c3ccccc3)[C@@H]1CC2", "EC50": 4.8}
{"smiles": "CC(C)c1ccc2c(c1)CC[C@H]1[C@](C)(CNC(=O)c3ccncc3)CCC[C@]21C", "EC50": 7.9}
{"smiles": "CC(=O)Oc1cc2c(cc1C(C)C)CC[C@H]1[C@](C)(CNC(=O)CCCC[C@H]3SCC4NC(=O)NC43)CCC[C@]21C", "note": "(some centres not stated)", "EC50": "> 30"}
{"smiles": "Cc1ccc(C(=O)NC[C@]2(C)CCC[C@]3(C)c4cc(O)c(C(C)C)cc4CC[C@@H]23)cc1", "EC50": 8.5}
{"smiles": "CC(C)c1cc2c(cc1OC(=O)c1ccccc1)[C@@]1(C)CCC[C@@](C)(CNC(=O)c3ccccc3)[C@@H]1CC2", "EC50": "> 30"}
{"test_system": "SW-1736", "test": "Cytotoxicity against human SW1736 cells after 96 hrs by sulforhodamine-B assay", "assay_type": "functional, cell-based", "settings": "Homo sapiens, SW-1736, 96 h; read-out: EC50", "units": {"EC50": "µM"}}
{"smiles": "CC(C)c1cc2c(cc1O)[C@@]1(C)CCC[C@@](C)(CNC(=O)c3ccncc3)[C@@H]1CC2", "EC50": 27.3}
{"smiles": "CC(C)c1cc2c(cc1O)[C@@]1(C)CCC[C@@](C)(CNC(=O)c3ccccc3)[C@@H]1CC2", "EC50": 11.5}
{"smiles": "CC(C)c1ccc2c(c1)CC[C@H]1[C@](C)(CNC(=O)c3ccncc3)CCC[C@]21C", "EC50": 14.2}
{"smiles": "CC(=O)Oc1cc2c(cc1C(C)C)CC[C@H]1[C@](C)(CNC(=O)CCCC[C@H]3SCC4NC(=O)NC43)CCC[C@]21C", "note": "(some centres not stated)", "EC50": "> 30"}
{"smiles": "Cc1ccc(C(=O)NC[C@]2(C)CCC[C@]3(C)c4cc(O)c(C(C)C)cc4CC[C@@H]23)cc1", "EC50": 7}
{"smiles": "CC(C)c1cc2c(cc1OC(=O)c1ccccc1)[C@@]1(C)CCC[C@@](C)(CNC(=O)c3ccccc3)[C@@H]1CC2", "EC50": "> 30"}
{"test_system": "NIH3T3", "test": "Cytotoxicity against mouse NIH/3T3 cells after 96 hrs by sulforhodamine-B assay", "assay_type": "cell-based", "settings": "Mus musculus, NIH3T3, 96 h; read-out: EC50", "units": {"EC50": "µM"}}
{"smiles": "CC(C)c1cc2c(cc1O)[C@@]1(C)CCC[C@@](C)(CNC(=O)c3ccncc3)[C@@H]1CC2", "EC50": 24.2}
{"smiles": "CC(C)c1cc2c(cc1O)[C@@]1(C)CCC[C@@](C)(CNC(=O)c3ccccc3)[C@@H]1CC2", "EC50": 18.1}
{"smiles": "CC(C)c1ccc2c(c1)CC[C@H]1[C@](C)(CNC(=O)c3ccncc3)CCC[C@]21C", "EC50": 16.9}
{"smiles": "CC(=O)Oc1cc2c(cc1C(C)C)CC[C@H]1[C@](C)(CNC(=O)CCCC[C@H]3SCC4NC(=O)NC43)CCC[C@]21C", "note": "(some centres not stated)", "EC50": "> 30"}
{"smiles": "Cc1ccc(C(=O)NC[C@]2(C)CCC[C@]3(C)c4cc(O)c(C(C)C)cc4CC[C@@H]23)cc1", "EC50": 16.8}
{"smiles": "CC(C)c1cc2c(cc1OC(=O)c1ccccc1)[C@@]1(C)CCC[C@@](C)(CNC(=O)c3ccccc3)[C@@H]1CC2", "EC50": "> 30"}
{"test_system": "not listed separately", "test": "Selectivity index, ratio of EC50 for mouse NIH/3T3 cells to EC50 for human MCF7 cells", "assay_type": "toxicity", "settings": "NIH/3T3 cells and MCF7 cells, read-out: Ratio EC50"}
{"smiles": "CC(C)c1cc2c(cc1O)[C@@]1(C)CCC[C@@](C)(CNC(=O)c3ccncc3)[C@@H]1CC2", "selectivity ratio": 6.2}
